Experimental data taken from patent publication US12024504B2, “1-methyl-1H-pyrazol-3-yl derivatives for use in the treatment of neovascular diseases” (EXONATE LIMITED, priority 2021, dated 2024).
pIC50: −log10 of the molar value.

Legend:
SRPK1 = biological target: T1, SRPK1 (Homo sapiens, UniProt Q96SB4); assay: In vitro kinase assay (radioactive filter binding, 33P ATP); format: biochemical
T1 construct: purchased MRC Dundee Kinase Centre (external assay service)
Experimental: Kinase assays were carried out by the MRC Dundee Kinase Centre using a radioactive filter binding assay using ^33P ATP (Hastie, et al 2006. Nat Protoc. 2006; 1(2):968-71; Bain, et al 2007. Biochem J. 2007 Dec. 15; 408(3):297-315).

VEGF-A165a isoform = assay: VEGF isoform specific ELISA in retinal pigmented epithelial cells; format: cell-based, human; settings: FIG. 5
Experimental: 96-well clear microplate (high sensitivity thermo immulon or costar 9018) were coated with 100 μL of 10 μg/mL VEGFxxxb or 0.25 μg/mL anti-hVEGF165a per well. The plate was sealed with parafilm and incubated overnight on the shaker at room temp. Each well was aspirated and washed with Wash Buffer (200 μL PBS-Tween 0.05%), […] for a total of three washes. After the last wash, remaining Wash Buffer was removed by inverting the plate and blotting it against clean paper towels. Plates were blocked by adding 100 μL of Reagent Diluent (1% BSA/PBS) to each well and incubated at room temp on a shaker for 2 hours. The aspiration/wash step was repeated. 100 μL of standards or samples in 1% BSA/PBS were added to each well, covered with parafilm and incubated 2 hours at room temperature. The aspiration/wash was repeated and 100 μL of 100 ng/mL of Detection Antibody (BAF293), diluted in Reagent Diluent, was added to each well which were covered with parafilm and incubated 2 hours at room temperature. The aspiration/wash was repeated and 100 μL of the working dilution of Streptavidin-HRP (1:200 dilution) was added to each well. […] The optical density of each well was measured immediately, using a microplate reader set to 450 nm.
To determine whether compound 1 could switch splicing of VEGF isoforms, VEGF was measured in retinal pigmented epithelial cells by isoform specific ELISA.

[1] = system: choroidal neovascularisation; assay: Laser-induced choroidal neovascularisation (CNV); format: in vivo, C57/B6 mice
Experimental: 6-8 week-old female C57/B6 mice were anesthetized with an intraperitoneal injection of a mixture of 50 mg/kg ketamine and 0.5 mg/kg medetomidine. The pupils were immediately dilated by topical (eyedrop) application with a dilator such as 5% phenylephrine hydrochloride and 1% tropicamide. Four photocoagulation lesions were delivered with a green Merilas 532α laser (450 mW, 130 ms) between the “large” retinal vessels in clear space with no vessels in a peripapillary distribution at a distance of 1-2 disc-diameters in each eye. Only clean laser lesions with a subretinal bubble at the time of treatment were included in the study. Immediately following laser photocoagulation the animals were given topical eye drops of candidate compounds twice daily at 2 μg/mL, 0.2 μg/mL or 0.066 μg/mL or eye drop formulation control as indicated (10 μL, eyes held for 30 seconds to prevent animal wiping drop away). Experiments were performed with an initial eye drop formulation containing 1% hydroxypropyl methyl cellulose, 0.2% tyloxapol, 3.4% dextrose, 0.006% benzalkonium chloride, and 0.025% ethylenediaminetetraacetic acid with 1% DMSO in PBS and data were confirmed in a second eye drop formulation containing 7% poly-oxyl-40-stearate and 4% dextrose in PBS.
After one week, mice were anesthetized with an intraperitoneal injection of a mixture of 50 mg/kg ketamine and 0.5 mg/kg medetomidine. […]

[2] = Non-human primate pharmacokinetic study (eye drops); format: in vivo, Cynomolgus monkeys
Experimental: Non-human primate pharmacokinetic study Cynomolgus monkeys were treated bidaily for 20 days with 35 μL eye drops of compound 1 at 0.5 mg/mL, 1.0 mg/mL or 1.5 mg/ml as indicated, in the eye drop formulation containing 7% poly-oxyl-40-stearate and 4% dextrose in PBS. Blood and aqueous samples were collected 1 h, 4 h, 8 h, 10 h and 14 h after eye drop administration on day 1 and at the end of the study. 1 h after the final eye drop on day 21, the animals were euthanised and ocular tissues and blood were collected. The retina was dissected from the choroid and sclera, incisions made, and laid out flat. Retina, RPE/choroid and sclera eye compartments were dissected into 7 different areas. All samples were weighed. Compound was extracted by reverse phase extraction from the retina and choroid/sclera samples and the plasma as above, and amount determined by mass spectrometry in different areas of the eye and in the blood. Amounts per milligram of tissue or nM for aqueous and blood were calculated for each sample, and averaged.
(§1) To determine whether compound 1 could penetrate into the retina of primates we dosed cynomologous monkeys with 0.5, 1.0 or 1.5 mg/mL compound 1 twice a day for 21 days. […] Aqueous taps and plasma samples were taken during the treatment and compound 1 measured in the fluid. […] To determine if these doses were sufficient to inhibit angiogenic VEGF-A isoform expression, retinal tissue was subjected to immunoblotting using pan-VEGF or VEGF-A165b antibodies.

pan-VEGF and VEGF-A165b = assay: Non-human primate retinal VEGF immunoblotting; format: in vivo, Cynomolgus monkeys; settings: monkey
Experimental: Retina sections sampled from half of the eye were homogenised in NP40 lysis buffer as described in Gammons et al., 2013. The extracts were then immunoblotted using either rabbit anti-panVEGF (Santa Cruz A20 sc-152; 1:500) or mouse anti-VEGFi65b (MAB3045; R&D; 1:500).
as §1

[3] = 3 weeks bidaily dosing, FIG. 10b

T1 sequence (Q96SB4 whole entry): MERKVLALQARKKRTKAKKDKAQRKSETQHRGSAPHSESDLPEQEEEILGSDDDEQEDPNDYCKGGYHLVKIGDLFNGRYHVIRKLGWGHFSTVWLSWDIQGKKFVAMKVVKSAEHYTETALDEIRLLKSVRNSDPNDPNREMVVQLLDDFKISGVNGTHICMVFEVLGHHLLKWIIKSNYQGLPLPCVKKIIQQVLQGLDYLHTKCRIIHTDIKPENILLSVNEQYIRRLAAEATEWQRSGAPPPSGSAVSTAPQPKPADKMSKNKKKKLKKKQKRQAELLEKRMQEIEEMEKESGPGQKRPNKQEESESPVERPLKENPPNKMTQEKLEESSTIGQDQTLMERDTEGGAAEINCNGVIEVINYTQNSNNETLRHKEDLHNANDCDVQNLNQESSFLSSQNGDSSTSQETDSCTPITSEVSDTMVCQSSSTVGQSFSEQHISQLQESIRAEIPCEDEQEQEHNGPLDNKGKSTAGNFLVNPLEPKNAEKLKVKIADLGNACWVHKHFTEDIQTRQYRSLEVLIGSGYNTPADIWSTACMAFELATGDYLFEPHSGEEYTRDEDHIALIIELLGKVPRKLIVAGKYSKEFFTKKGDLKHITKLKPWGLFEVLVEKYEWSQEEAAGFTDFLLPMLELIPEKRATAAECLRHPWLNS

Cn1ccc(CN2CCN(c3ccc(C(F)(F)F)cc3NC(=O)c3ccc(C4CCOCC4)o3)CC2)n1 [Compound 1, N-(2-(4-((1-methyl-1H-pyrazol-3-yl)methyl)piperazin-1-yl)-5-(trifluoromethyl)phenyl)-5-(tetrahydro-2H-pyran-4-yl)furan-2-carboxamide]
pIC50 (SRPK1): 8.40 | Expression of pro-angiogenic VEGF-A165a isoform (VEGF-A165a isoform): reduces expression of the pro-angiogenic VEGF-A165a isoform in a dose dependent manner | Anti-angiogenic activity on lesion size versus reference compounds ([1]; laser-induced mouse model of CNV, FIG. 7): same anti-angiogenic activity on lesion size as reference compounds | Inhibition of choroidal neovascularisation ([1]; mouse, eye drops twice daily at 0.066 μg/mL, FIG. 7b): significantly inhibited | half-life ([2]; cynomolgus, cynomolgus monkey, aqueous humour, topical or ocular, monkey, after administration of 1.5 mg/mL eye drop): 120 min | Concentrations in retina, choroid, vitreous and other tissues of the eye ([2]; monkey, 0.5, 1.0 or 1.5 mg/mL twice a day for 21 days): significant concentrations | Concentrations in aqueous taps and plasma samples ([2]; monkey, all three doses (0.5, 1.0, 1.5 mg/mL)): Significant concentrations were seen at all three doses | Total VEGF levels in retina (pan-VEGF and VEGF-A165b; [3]): total VEGF levels are decreased | VEGF-A165b levels in retina (pan-VEGF and VEGF-A165b; [3]): do not decrease and increase at 1 mg/ml | Ratio of angiogenic to anti-angiogenic VEGF-A in retina (pan-VEGF and VEGF-A165b; FIG. 10c): decreases | melting point: 148 to 150 °C
